The target of one data set is T1, mouse DGAT1 (Mus musculus, UniProt Q9Z2A7).
T1 construct: made in house; host or cells: insect cells (High Five, Sf9, Sf21, etc.), baculovirus expression system (Invitrogen)
T1 sequence (Q9Z2A7 1-498): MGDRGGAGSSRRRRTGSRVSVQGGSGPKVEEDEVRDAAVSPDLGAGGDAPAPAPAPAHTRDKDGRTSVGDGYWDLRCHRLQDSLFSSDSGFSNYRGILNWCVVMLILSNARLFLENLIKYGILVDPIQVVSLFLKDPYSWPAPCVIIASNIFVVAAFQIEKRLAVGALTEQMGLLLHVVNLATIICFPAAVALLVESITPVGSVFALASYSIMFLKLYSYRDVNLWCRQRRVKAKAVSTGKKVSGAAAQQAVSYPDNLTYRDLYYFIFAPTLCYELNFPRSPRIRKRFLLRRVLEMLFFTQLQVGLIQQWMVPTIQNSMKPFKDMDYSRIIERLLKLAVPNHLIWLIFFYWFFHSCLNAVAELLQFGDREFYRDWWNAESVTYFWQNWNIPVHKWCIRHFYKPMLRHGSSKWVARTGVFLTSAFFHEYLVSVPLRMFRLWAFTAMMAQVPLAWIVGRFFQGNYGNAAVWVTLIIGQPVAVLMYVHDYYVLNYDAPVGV
Briefly: DGAT1 inhibitory effect test (microsome fraction, [14C]-oleoyl-CoA, triglyceride radioactivity by TLC). It is filed as biochemical. Particulars: 0.5 h; concentration of the test compound 0.1 μg/ml; mouse DGAT1 microsomes, 23° C., 30 minutes; read-out: Inhibitory ratio. Put shortly:
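Baculovirus-expressed mouse DGAT1 insect-cell microsomes (10 μg) were incubated 30 min at 23 °C, pH 8.0, with 0.5 mM 1,2-dioleoyl-sn-glycerol, 30 μM [14C]-oleoyl-CoA and 0.5% Triton X-100. [14C]-triglyceride was quantified after heptane extraction and TLC. Percent inhibition was taken against vehicle control, with 0-min background subtracted.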

Molecules are shown by their SMILES. Bounds are passed on as bounds.

The compound `COc1ccc(C)cc1NC(=O)Nc1ccc(N2CCN(C(=O)Oc3c(C)cccc3Cl)CC2)cc1` [Example 197, 4-{4-[3-(2-methoxy-5-methyl-phenyl)-ureido]-phenyl}-piperazine-1-carboxylic acid 2-chloro-6-methyl-phenyl ester] had a melting point of 146 to 148 °C. The inhibition at 0.1 µg/mL at mouse DGAT1 is at least 50%.
Regarding `COc1ccc(C)cc1NC(=O)Nc1ccc(N2CCN(C(=O)Nc3c(C)cccc3Cl)C(C)C2)cc1` (stereo not drawn) [Example 198, 4-{4-[3-(2-methoxy-5-methyl-phenyl)-ureido]-phenyl}-2-methyl-piperazine-1-carboxylic acid (2-chloro-6-methyl-phenyl)-amide], the melting point lay in the range of 161 to 163 °C. In addition, on mouse DGAT1, the inhibition at 0.1 µg/mL is at least 50%.
Regarding `COc1ccc(C)cc1NC(=O)Nc1ccc(N2CCN(C(=O)Nc3c(C)cccc3C)C(C)C2)cc1` (stereo not drawn) [Example 199, 4-{4-[3-(2-methoxy-5-methyl-phenyl)-ureido]-phenyl}-2-methyl-piperazine-1-carboxylic acid (2,6-dimethyl-phenyl)-amide], the melting point was 204 to 206 °C. Further, the inhibition at 0.1 µg/mL on mouse DGAT1 is at least 50%.
With `COc1ccc(C)cc1NC(=O)Nc1ccc(N2CCCN(C(=O)Nc3c(C)cccc3Cl)CC2)cc1` [Example 200, 4-{4-[3-(2-methoxy-5-methyl-phenyl)-ureido]-phenyl}-perhydro-1,4-diazepine-1-carboxylic acid (2-chloro-6-methyl-phenyl)-amide], the melting point is > 240 °C (dec.). For the same compound, the inhibition at 0.1 µg/mL at mouse DGAT1 is at least 50%.
As for `COc1ccc(C)cc1NC(=O)Nc1ccc(N2CCCN(C(=O)Nc3c(C)cccc3C)CC2)cc1` [Example 201, 4-{4-[3-(2-methoxy-5-methyl-phenyl)-ureido]-phenyl}-perhydro-1,4-diazepine-1-carboxylic acid (2,6-dimethyl-phenyl)-amide], the melting point is > 240 °C (dec.). For the same compound, the inhibition at 0.1 µg/mL at mouse DGAT1 is at least 50%.
Turning to `CCCCCCNC(=O)Nc1ccc(N2CCN(C(=O)Nc3c(C)cccc3Cl)CC2)cc1` [Example 206, 4-[4-(3-hexyl-ureido)-phenyl]-piperazine-1-carboxylic acid (2-chloro-6-methyl-phenyl)-amide], the melting point was 206 to 210 °C. The inhibition at 0.1 µg/mL at mouse DGAT1 was at least 50%.
With `Cc1cccc(Cl)c1NC(=O)N1CCN(c2ccc(NC(=O)NC3CCCCC3)cc2)CC1` [Example 207, 4-[4-(3-cyclohexyl-ureido)-phenyl]-piperazine-1-carboxylic acid (2-chloro-6-methyl-phenyl)-amide], the melting point is > 260 °C (dec.). Besides, at mouse DGAT1, the inhibition at 0.1 µg/mL was at least 50%.
For `COc1ccc(C)cc1NC(=O)Nc1ccc(N2CCN(C(=O)Nc3ccc(OCCO)cc3C)CC2)cc1` [Example 208, 4-{4-[3-(2-methoxy-5-methyl-phenyl)-ureido]-phenyl}-piperazine-1-carboxylic acid [4-(2-hydroxy-ethoxy)-2-methyl-phenyl]-amide], the melting point is 174 to 176 °C. Besides, the inhibition at 0.1 µg/mL at mouse DGAT1 is at least 50%.
`COc1ccc(C)cc1NC(=O)Nc1ccc(N2CCN(C(=O)Nc3ccc(OCCO)cc3C(F)(F)F)CC2)cc1` [Example 209, 4-{4-[3-(2-methoxy-5-methyl-phenyl)-ureido]-phenyl}-piperazine-1-carboxylic acid [4-(2-hydroxy-ethoxy)-2-trifluoromethyl-phenyl]-amide]: the melting point was in the range of 175 to 177 °C. Besides, on mouse DGAT1, the inhibition at 0.1 µg/mL was at least 50%.
In turn, `COc1ccc(C)cc1NC(=O)Nc1ccc(N2CCN(C(=O)Nc3ccc(OCCO)cc3F)CC2)cc1` [Example 210, 4-{4-[3-(2-methoxy-5-methyl-phenyl)-ureido]-phenyl}-piperazine-1-carboxylic acid [2-fluoro-4-(2-hydroxy-ethoxy)-phenyl]-amide] showed a melting point of 214 to 215 °C. The inhibition at 0.1 µg/mL on mouse DGAT1 was at least 50%.
On the same counts, the results for `O=C(Nc1ccc(N2CCN(C(=O)Nc3ccc(OCCO)cc3C(F)(F)F)CC2)cc1)Nc1ccccc1F` [Example 211, 4-{4-[3-(2-fluoro-phenyl)-ureido]-phenyl}-piperazine-1-carboxylic acid [4-(2-hydroxy-ethoxy)-2-trifluoromethyl-phenyl]-amide] are 219 to 220 °C and at least 50%.
In turn, `COc1ccc(F)cc1NC(=O)Nc1ccc(N2CCN(C(=O)Nc3ccc(OCCO)cc3C(F)(F)F)CC2)cc1` [Example 212, 4-{4-[3-(5-fluoro-2-methoxy-phenyl)-ureido]-phenyl}-piperazine-1-carboxylic acid [4-(2-hydroxy-ethoxy)-2-trifluoromethyl-phenyl]-amide] came in with a melting point of 140 to 141 °C. Further, the inhibition at 0.1 µg/mL on mouse DGAT1 is at least 50%.
On to `Cc1cnc(NC(=O)Nc2ccc(N3CCN(C(=O)Nc4ccc(OCCO)cc4C(F)(F)F)CC3)cc2)s1` [Example 213, 4-{4-[3-(5-methyl-thiazol-2-yl)-ureido]-phenyl}-piperazine-1-carboxylic acid [4-(2-hydroxy-ethoxy)-2-trifluoromethyl-phenyl]-amide], for which the melting point fell in the range of 118 to 120 °C. Besides, the inhibition at 0.1 µg/mL on mouse DGAT1 was at least 50%.
`COc1cccc(NC(=O)Nc2ccc(N3CCN(C(=O)Nc4ccc(OCCO)cc4C(F)(F)F)CC3)cc2)c1` [Example 214, 4-{4-[3-(3-methoxy-phenyl)-ureido]-phenyl}-piperazine-1-carboxylic acid [4-(2-hydroxy-ethoxy)-2-trifluoromethyl-phenyl]-amide] showed a melting point of 214 to 215 °C. Also, the inhibition at 0.1 µg/mL on mouse DGAT1 was at least 50%.
The compound `CCOc1cccc(NC(=O)Nc2ccc(N3CCN(C(=O)Nc4ccc(OCCO)cc4C(F)(F)F)CC3)cc2)c1` [Example 215, 4-{4-[3-(3-ethoxy-phenyl)-ureido]-phenyl}-piperazine-1-carboxylic acid [4-(2-hydroxy-ethoxy)-2-trifluoromethyl-phenyl]-amide] came in with a melting point of 108 to 110 °C. On mouse DGAT1, the inhibition at 0.1 µg/mL is at least 50%.
With `COc1cc(NC(=O)Nc2ccc(N3CCN(C(=O)Nc4ccc(OCCO)cc4C(F)(F)F)CC3)cc2)cc(OC)c1` [Example 216, 4-{4-[3-(3,5-dimethoxy-phenyl)-ureido]-phenyl}-piperazine-1-carboxylic acid [4-(2-hydroxy-ethoxy)-2-trifluoromethyl-phenyl]-amide], the melting point fell in the range of 209 to 210 °C. Also, on mouse DGAT1, the inhibition at 0.1 µg/mL was at least 50%.
As for `COc1ccccc1NC(=O)Nc1ccc(N2CCN(C(=O)Nc3ccc(OCCO)cc3C(F)(F)F)CC2)cc1` [Example 217, 4-{4-[3-(2-methoxy-phenyl)-ureido]-phenyl}-piperazine-1-carboxylic acid [4-(2-hydroxy-ethoxy)-2-trifluoromethyl-phenyl]-amide], the melting point was in the range of 118 to 120 °C. On mouse DGAT1, the inhibition at 0.1 µg/mL is at least 50%.
Consider `COc1ccc(C)cc1NC(=O)Nc1ccc(N2CCCN(C(=O)Nc3ccc(OCCO)cc3C(F)(F)F)CC2)cc1` [Example 218, 4-{4-[3-(2-methoxy-5-methyl-phenyl)-ureido]-phenyl}-perhydro-1,4-diazepine-1-carboxylic acid [4-(2-hydroxy-ethoxy)-2-trifluoromethyl-phenyl]-amide], for which the melting point lay in the range of 118 to 120 °C. In addition, the inhibition at 0.1 µg/mL on mouse DGAT1 was at least 50%.

These data come from patent US20070249620A1, “Urea Derivative” (priority 2004, published 2007).
